What was measured:
[1] = tested on: spinal glial cells in the dorsal horn of the spinal cord; test: Spinal glial activation (astrocytes and microglia) after intrauterine LPS, overall statements; assay type: in vivo, mouse (Balb/C); details: for spinal glial activation induced by intrauterine LPS: intrauterine co-administration with LPS
Description: In the model, we investigated whether intrauterine LPS administration would cause an activation of the innate immune system in the uterus, replicating the inflammation often seen in dysmenorrhea, with possible association with pain. As inflammation is intrinsically linked with pain, we investigated whether activation of the innate immune system in the uterus would induce activation of spinal glial cells (central nervous system immune cells) in the dorsal horn of the spinal cord. Spinal glial cells include astrocytes and microglia. Activation of spinal glial cells was assessed using immunoflourescent staining with GFAP (astrocytes) or Iba1 (microglia). We then investigated if spinal glial activation is attenuated by the innate immune system blocking drugs amitriptyline and TAK-242.
(§1) Group 1 included twelve mice with 20 μl endotoxin-free saline introduced to the uterus on the first day of estrus and the subsequent day over 3 consecutive estrous cycles. Group 2 included twelve mice with LPS (100 μg/kg) instilled in the uterus on the first day of estrus and saline injected on the subsequent day over 3 consecutive estrous cycles. Group 3 included twelve mice with LPS (100 μg/kg) mixed with amitriptyline (20 μl of a 100 μM solution, equivalent to 28 μg/kg) instilled in the uterus on the first day of estrus, and amitriptyline alone instilled on the subsequent day over 3 consecutive estrous cycles. Group 4 included 14 mice with LPS (100 μg/kg) mixed with TAK-242 (20 μl of a 100 μM solution, equivalent to 36 μg/kg) instilled on the first day of estrus and TAK-242 alone instilled on the subsequent day over 3 consecutive estrous cycles.
Determination of spinal glial response was then assessed using immunofluorescence to confirm the validity of the experimental model.
Determination of the ability of TLR4 antagonists to block the activation of spinal astrocytes and microglia induced by intra-uterine instillation of LPS was assessed.
An assessment of glial activation was made using immunochemistry techniques including Ionized calcium binding adaptor molecule 1 (Iba1) expression and glial fibrillary-associated protein (GFAP) variability in the dorsal horn. Iba1 expression is a marker for microglial activation, and GFAP is a marker for astrocyte activation. The spinal cord levels chosen are consistent with the level of spinal afferent neurons associated with the pelvis, including the uterus in the mouse.

[2] = tested on: spinal astrocytes (GFAP) in the dorsal horn of the spinal cord; test: Spinal astrocyte activation (GFAP immunofluorescence) after intrauterine LPS; assay type: in vivo, mouse (Balb/C); details: intrauterine, mixed with LPS 100 μg/kg on first day of estrus and alone the subsequent day, 3 estrous cycles; amitriptyline 28 μg/kg, TAK-242 36 μg/kg; vs LPS
Experimental: as §1
(§2) The investigation involved the instillation of 20 ul of an endotoxin-free 0.9% saline solution into the uterus of all animals on the first day of estrus and the subsequent day during 3 consecutive estrous cycles. Additional agents added to the saline were included according to the groups outlined below. Where LPS is administered, this was done on only 1 day per estrous cycle.
(§3) Where amitriptyline or TAK-242 was administered, this is on both the first day of estrus and the subsequent day.
(§4) The spinal cord was assessed using immunohistochemistry techniques across levels T10, T11, T12, T13, L1, L2, L3, L4, L5, L6, S1 and S2 for Groups 1 and 2, where T represents the thoracic segment of the spinal cord, L represents the lumbar segment of the spinal cord and S represents the sacral segment of the spinal cord.
as §4, with “levels” for “levels T10, T11,”, “L6, S” for “L6, S1”, “Groups 3” for “Groups 1”, “and 4,” for “and 2,”, “cord. […]” for “cord.”

[3] = tested on: mice with intrauterine LPS; test: Facial Grimace Scale 24 hours after final LPS stimulation; assay type: in vivo, mouse (Balb/C); details: LPS in conjunction with amitriptyline or TAK242, 24 hours after final LPS stimulation
Experimental: as §1
24 hours following the final LPS stimulation mice were subjected to assessment for the presence or absence of pain. This was assessed using the following tests:
Facial Grimace Scale: Photos of mice in their home cage will be taken, to score their facial Grimace and this was quantified and compared between groups. For further information see: http://www.nature.com/nmeth/journal/v7/n6/full/nmeth.1455.html.

[4] = tested on: spinal microglia (Iba1) in the dorsal horn of the spinal cord; test: Spinal microglial activation (Iba1 immunofluorescence) after intrauterine LPS; assay type: in vivo, mouse (Balb/C); details: intrauterine, mixed with LPS 100 μg/kg on first day of estrus and alone the subsequent day, 3 estrous cycles; amitriptyline 28 μg/kg, TAK-242 36 μg/kg; vs LPS
Experimental: as §1, §2, §3, §4
as §4, with “levels” for “levels T10, T11,”, “L6, S” for “L6, S1”, “Groups 3” for “Groups 1”, “and 4,” for “and 2,”, “cord. […]” for “cord.”

HEK293/Null = test: Antagonist screening on RIG-I−/MDA-5− control cell line stimulated with hIFNα; assay type: cell-based; details: stimulated with recombinant hIFNα at 100 IU/mL
Experimental: RIG-I and MDA-5 stimulation were tested by assessing IRF3 activation in HEK293 cells expressing human RIG-I or MDA-5 genes. The activity of the test articles was tested on human RIG-I and MDA-5 expressing cells as a potential agonist or antagonist. The test articles were evaluated at one concentration and compared to control ligands. This step was performed in triplicate. The results are provided as Relative Luminescence Units (RLUs).
RIG-I^−/MDA-5^− Cell Lines: HEK293/Null: Control for human RIG-I and MDA-5 Poly(I:C)HMW/LyoVec at 1 μg/mL. Antagonist: 500 ng/mL 5′ppp-dsRNA/LyoVec at 1 μg/mL. Antagonist: 500 ng/mL hIFNα at 1000 IU/mL. Antagonist: 100 IU/mL.
In a 96-well plate (200 μL total volume) containing the appropriate cells (25,000-50,000 cells/well), 20 μL of the test article or of the positive control ligand was added to the wells. For the antagonist assay, the test article was incubated with the cells, at 37° C. with 5% CO2, for 30 minutes prior to the addition of the positive control ligand to the wells. After 20 hour incubation, activation of the IRF pathway was monitored using a luciferase detection assay. Luciferase activity was assayed in triplicate from the supernatant of the induced cells, and the relative luminescence units (RLUs) are detected by a Promega GloMax Luminometer.

[5] = taken orally; cited from earlier work

**Q.** For `CN(C)CCC=C1c2ccccc2CCc2ccccc21` [Amitriptyline], which “spinal glial activation induced by intrauterine LPS” value [1] is on record?
**A.** additional activity reducing spinal glial activation above TAK-242 alone

**Q.** And the “spinal glial activation induced by intrauterine LPS” value ([1]; listed as amitriptyline)?
**A.** prevented

**Q.** What about the “dose effective at reducing spinal glial activation” value ([1]; mouse model, intrauterine administration) of the same compound?
**A.** 0.027 mg/kg

**Q.** What about the “astrocytic reactivity (GFAP staining), impact of intrauterine LPS at multiple levels of the spinal cord” value [2] of the same compound?
**A.** reduced astrocytic reactivity to below basal levels

**Q.** And the Grimace scores [3]?
**A.** reduced these scores

**Q.** And the “microglial reactivity (Iba1 staining), impact of intrauterine LPS at multiple levels of the spinal cord” value [4]?
**A.** reduced microglial reactivity to basal levels

**Q.** What about the “effect on RIG-I−/MDA-5− control cell line” value (HEK293/Null) of the same compound?
**A.** inhibitory effect

**Q.** What about the side effects [5] of the same compound?
**A.** drowsiness, dry mouth, blurred vision, pupil dilation, constipation, weight and urinary retention

Source: US11400059B2, “Treatment of pain and/or pain related symptoms associated with dysmenorrhea” (ALYRA BIOTECH PTY LTD, priority 2017, dated 2022)
